According to ChEMBL document CHEMBL1144114, “A new cacospongionolide derivative from the sponge Fasciospongia cavernosa” (J Nat Prod, 1999):
In brackets after ≈: the same amount, converted by molar mass.

Legend:
[1] = system: Artemia salina; assay: Toxicity against Artemia salina; type: organism-based; details: in vivo
[2] = system: Gambusia affinis; assay: Toxicity against Gambusia affinis; type: organism-based; details: in vivo
[3] = system: Bacillus subtilis; assay: Antibacterial activity against Bacillus subtilis DSM 347; type: functional
[4] = system: Micrococcus luteus; assay: Antibacterial activity against Micrococcus luteus DSM 348; type: functional

**Q.** Which results are given for `C[C@H]1CC=C2[C@H](CCCC2(C)C)[C@@]1(C)CCC1=CC[C@H](C2=CC(=O)O[C@H]2O)OC1` [CACOSPONGIONOLIDE F]?
**A.** LC50 [1]: 0.17 ppm; LC50 [2]: 0.7 ppm; MIC [3]: 0.78 µg/mL (≈ 1.95 µM); MIC [4]: 0.78 µg/mL (≈ 1.95 µM)
